Data on 25 molecules can be found in ChEMBL document CHEMBL1201862, “PubChem BioAssay data set” (2004).

The structures appear in SMILES notation. Active and inactive are the calls of the source. Bounds are passed on as bounds.

Series [1] concerns the target T1, High affinity choline transporter 1 (Homo sapiens, UniProt Q9GZV3).
T1 sequence (Q9GZV3 whole entry): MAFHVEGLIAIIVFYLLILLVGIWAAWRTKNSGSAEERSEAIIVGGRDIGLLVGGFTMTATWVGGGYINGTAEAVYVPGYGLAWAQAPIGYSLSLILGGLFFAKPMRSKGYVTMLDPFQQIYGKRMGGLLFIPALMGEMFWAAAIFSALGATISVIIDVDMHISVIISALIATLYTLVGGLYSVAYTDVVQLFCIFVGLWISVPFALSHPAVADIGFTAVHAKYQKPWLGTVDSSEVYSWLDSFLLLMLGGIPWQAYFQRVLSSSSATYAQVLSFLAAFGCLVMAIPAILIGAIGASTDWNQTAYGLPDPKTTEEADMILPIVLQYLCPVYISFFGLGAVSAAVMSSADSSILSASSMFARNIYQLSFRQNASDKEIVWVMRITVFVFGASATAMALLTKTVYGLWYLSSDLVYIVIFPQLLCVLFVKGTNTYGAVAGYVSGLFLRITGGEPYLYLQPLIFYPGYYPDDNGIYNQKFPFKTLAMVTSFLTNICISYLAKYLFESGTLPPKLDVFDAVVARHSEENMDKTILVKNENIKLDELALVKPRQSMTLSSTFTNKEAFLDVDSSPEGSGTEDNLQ
The series is described as follows: CHT inhibitors, dose response, cell-based, 5-point CRC, membrane potential dye (AID 504840). It is filed as functional.

Series [2] is described as follows: HEp-2 cell cytotoxicity, dose response, cytotoxicity control for RSV inhibitor project, HTS (AID 2410). In kind it is functional. As to conditions: human respiratory syncytial virus.
The nature of series [3]: microbe, parasite or virus in culture. The following applies: Mycobacterium tuberculosis. It is filed as functional.
The nature of series [4]: Luminescence Cell-Based Dose Retest to Confirm Inhibitors of Cancer Stem Cells. [Related pubchem assays (depositor defined):AID2717, AID2721]. In kind it is functional, Homo sapiens. As to conditions: Homo sapiens.
For series [5], the target named is Cytochrome P450 2C9 (Homo sapiens, UniProt P11712).
For series [6], the target named is Cytochrome P450 2C19 (Homo sapiens, UniProt P33261). The series is described as follows: Cytochrome panel assay with activity outcomes. Panel member name: p450-cyp2c19 Compounds with AC50 equal or less than 10 uM are considered active. In kind it is functional. As to conditions: read-out: AC50.
The nature of series [7]: growth suppression of PTEN-null colon cells, dose response, cell-based, HCT116 PTEN knockout (AID 1047).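 Further: HCT116 colon tumor cells with PTEN knocked out; cells exposed to compound for 60 hours before readout; potency for loss of cell viability measured by luminescence.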 It is filed as functional.
Series [8] can be described thus: growth suppression of beta-catenin-knockout colon cells, dose response, cell-based, HCT116, human colon tumor (AID 1045).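 Further: HCT116 colon tumor cells with beta catenin knocked out; cells exposed to compound for 60 hours.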 In kind it is functional.
The target in series [9] is T2, Short transient receptor potential channel 4 (Mus musculus, UniProt Q9QUQ5).
T2 sequence (Q9QUQ5 whole entry): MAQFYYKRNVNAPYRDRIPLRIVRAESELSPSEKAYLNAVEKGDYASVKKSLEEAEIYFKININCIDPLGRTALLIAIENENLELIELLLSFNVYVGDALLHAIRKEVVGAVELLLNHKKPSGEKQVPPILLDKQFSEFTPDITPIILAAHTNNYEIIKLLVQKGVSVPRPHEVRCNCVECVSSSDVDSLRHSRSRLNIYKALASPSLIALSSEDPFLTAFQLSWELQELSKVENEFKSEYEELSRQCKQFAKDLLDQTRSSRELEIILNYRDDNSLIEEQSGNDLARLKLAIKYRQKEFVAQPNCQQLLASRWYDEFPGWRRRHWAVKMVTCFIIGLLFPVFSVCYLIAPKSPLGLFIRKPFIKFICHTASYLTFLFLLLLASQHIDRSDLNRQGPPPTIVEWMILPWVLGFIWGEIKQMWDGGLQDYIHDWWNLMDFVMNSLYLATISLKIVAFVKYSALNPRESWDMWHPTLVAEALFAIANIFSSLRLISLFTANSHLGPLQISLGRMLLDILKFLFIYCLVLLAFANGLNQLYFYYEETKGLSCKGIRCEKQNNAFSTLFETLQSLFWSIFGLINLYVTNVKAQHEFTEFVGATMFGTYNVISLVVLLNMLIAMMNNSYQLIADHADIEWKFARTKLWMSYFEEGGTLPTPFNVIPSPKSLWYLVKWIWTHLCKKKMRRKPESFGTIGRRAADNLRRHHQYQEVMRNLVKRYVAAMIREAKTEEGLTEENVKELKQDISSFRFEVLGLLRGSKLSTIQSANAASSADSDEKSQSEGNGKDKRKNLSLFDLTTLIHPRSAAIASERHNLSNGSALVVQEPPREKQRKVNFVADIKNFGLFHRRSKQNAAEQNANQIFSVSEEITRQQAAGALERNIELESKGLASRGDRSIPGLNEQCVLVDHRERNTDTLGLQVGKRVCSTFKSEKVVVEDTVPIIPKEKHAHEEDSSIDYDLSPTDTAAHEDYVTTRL
The series is described as follows: mouse TRPC4 channel activators, dose response, cell-based, HEK293 TRPC4/mu-opioid, Fluo-4 calcium (AID 434937). It is filed as functional.

Series [10] has as its target T3, Cytochrome P450 1A2 (Homo sapiens, UniProt P05177).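 Further: PubChem cytochrome P450 panel assay, CYP1A2 panel member.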
T3 sequence (P05177 whole entry): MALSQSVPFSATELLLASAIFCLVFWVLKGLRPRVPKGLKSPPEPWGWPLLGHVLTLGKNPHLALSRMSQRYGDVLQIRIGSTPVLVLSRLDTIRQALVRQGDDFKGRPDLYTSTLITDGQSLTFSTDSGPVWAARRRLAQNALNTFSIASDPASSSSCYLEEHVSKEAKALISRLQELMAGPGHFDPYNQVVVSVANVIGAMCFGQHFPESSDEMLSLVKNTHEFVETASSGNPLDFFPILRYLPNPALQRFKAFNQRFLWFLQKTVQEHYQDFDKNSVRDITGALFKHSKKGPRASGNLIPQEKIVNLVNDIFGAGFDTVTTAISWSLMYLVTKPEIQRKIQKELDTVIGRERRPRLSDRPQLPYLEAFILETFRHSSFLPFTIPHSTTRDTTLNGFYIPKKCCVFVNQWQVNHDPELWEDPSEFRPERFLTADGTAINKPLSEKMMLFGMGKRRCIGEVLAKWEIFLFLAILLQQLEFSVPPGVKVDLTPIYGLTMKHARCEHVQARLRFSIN

In series [11] the target is T4, Aminopeptidase N (Plasmodium falciparum FcB1/Columbia, UniProt O96935).
T4 sequence (O96935 whole entry): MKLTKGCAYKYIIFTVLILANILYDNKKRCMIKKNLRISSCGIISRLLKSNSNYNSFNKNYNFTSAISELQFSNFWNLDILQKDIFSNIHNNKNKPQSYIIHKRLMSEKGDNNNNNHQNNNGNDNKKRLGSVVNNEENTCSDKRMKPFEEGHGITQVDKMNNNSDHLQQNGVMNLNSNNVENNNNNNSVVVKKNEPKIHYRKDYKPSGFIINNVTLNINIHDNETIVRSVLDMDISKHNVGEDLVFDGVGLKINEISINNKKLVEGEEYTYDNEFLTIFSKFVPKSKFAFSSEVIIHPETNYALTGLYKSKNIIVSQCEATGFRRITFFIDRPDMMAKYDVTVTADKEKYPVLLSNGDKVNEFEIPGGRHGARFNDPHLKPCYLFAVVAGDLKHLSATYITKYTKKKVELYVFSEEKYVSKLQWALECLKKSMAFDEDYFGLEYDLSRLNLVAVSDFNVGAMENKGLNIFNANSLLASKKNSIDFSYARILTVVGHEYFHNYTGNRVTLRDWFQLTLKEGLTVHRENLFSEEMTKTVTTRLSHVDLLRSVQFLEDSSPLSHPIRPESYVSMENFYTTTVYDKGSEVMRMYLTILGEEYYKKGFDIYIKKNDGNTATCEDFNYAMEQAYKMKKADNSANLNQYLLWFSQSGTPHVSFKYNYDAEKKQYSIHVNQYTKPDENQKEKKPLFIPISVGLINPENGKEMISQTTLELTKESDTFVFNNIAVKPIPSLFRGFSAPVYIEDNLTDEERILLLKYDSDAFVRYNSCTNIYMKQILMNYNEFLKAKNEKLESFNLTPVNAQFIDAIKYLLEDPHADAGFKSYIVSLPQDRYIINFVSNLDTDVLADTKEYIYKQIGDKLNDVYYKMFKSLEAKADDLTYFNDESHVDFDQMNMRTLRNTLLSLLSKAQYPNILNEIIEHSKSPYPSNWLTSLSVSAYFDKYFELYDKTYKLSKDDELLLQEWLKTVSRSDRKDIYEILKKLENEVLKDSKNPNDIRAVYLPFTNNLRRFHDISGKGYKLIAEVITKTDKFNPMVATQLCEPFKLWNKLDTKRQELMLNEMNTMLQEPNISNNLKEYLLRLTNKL
The series is described as follows: P. falciparum M1AAP inhibitors, biochemical, fluorogenic H-Leu-NHMec substrate, 1536-well (AID 1445). Also on record: species or system Plasmodium falciparum 3D7, 3D7.

Series [12] deals with Cytochrome P450 2D6 (Homo sapiens, UniProt P10635).
Series [13] deals with T5, Ubiquitin-conjugating enzyme E2 N (Homo sapiens, UniProt P61088).
T5 sequence (P61088 whole entry): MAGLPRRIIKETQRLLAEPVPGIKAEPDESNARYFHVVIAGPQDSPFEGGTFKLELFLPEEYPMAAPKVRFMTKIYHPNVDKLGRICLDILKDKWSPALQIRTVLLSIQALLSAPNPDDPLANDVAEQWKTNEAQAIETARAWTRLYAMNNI
In kind it is functional.

A short description of series [14]: intracellular Trypanosoma cruzi inhibitors in host cells – cell-based, plate reader, cherry-pick samples, set 3, dose response (AID 651818).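 Further: compounds incubated with infected cells for about four days.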 In kind it is functional.

Sequence of Cytochrome P450 2C9 (P11712 whole entry): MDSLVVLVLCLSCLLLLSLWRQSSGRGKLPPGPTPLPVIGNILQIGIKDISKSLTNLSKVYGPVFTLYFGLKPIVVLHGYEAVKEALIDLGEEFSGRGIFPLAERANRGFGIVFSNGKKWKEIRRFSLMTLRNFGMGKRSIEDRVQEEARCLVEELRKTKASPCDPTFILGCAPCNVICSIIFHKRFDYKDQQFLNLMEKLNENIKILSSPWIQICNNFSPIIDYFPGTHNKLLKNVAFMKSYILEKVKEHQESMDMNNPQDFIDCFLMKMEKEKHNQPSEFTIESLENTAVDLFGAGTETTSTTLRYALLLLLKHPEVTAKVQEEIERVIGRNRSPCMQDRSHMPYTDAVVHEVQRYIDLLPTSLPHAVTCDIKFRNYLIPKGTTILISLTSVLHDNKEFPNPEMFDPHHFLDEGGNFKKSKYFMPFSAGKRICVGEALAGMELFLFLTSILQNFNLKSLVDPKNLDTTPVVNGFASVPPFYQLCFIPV
Sequence of Cytochrome P450 2D6 (P10635 whole entry): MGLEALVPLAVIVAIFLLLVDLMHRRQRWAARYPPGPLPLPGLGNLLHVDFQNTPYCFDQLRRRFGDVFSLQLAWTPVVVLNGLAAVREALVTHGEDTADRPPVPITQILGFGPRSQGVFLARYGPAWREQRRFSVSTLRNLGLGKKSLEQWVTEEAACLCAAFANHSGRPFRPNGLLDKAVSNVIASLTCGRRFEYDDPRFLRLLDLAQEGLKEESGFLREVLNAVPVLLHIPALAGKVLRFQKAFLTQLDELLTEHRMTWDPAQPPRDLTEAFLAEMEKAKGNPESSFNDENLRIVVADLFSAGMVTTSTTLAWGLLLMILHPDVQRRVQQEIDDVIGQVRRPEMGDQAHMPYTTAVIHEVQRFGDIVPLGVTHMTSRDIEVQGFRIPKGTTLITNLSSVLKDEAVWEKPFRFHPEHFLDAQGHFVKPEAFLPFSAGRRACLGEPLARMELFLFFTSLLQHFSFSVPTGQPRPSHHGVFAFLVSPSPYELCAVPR
Sequence of Cytochrome P450 2C19 (P33261 whole entry): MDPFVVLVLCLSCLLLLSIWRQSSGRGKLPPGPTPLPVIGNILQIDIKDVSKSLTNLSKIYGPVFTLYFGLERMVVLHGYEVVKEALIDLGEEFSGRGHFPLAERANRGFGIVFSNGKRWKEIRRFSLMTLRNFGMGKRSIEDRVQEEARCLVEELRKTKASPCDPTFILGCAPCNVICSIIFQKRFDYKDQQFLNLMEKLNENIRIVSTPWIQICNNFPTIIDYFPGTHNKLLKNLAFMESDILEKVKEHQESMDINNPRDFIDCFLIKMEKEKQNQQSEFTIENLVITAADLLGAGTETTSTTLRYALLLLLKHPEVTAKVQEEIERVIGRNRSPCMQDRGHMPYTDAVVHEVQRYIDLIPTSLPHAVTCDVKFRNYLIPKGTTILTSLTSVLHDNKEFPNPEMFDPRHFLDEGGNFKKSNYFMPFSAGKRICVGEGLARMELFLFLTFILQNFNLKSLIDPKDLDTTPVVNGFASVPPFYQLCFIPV

Regarding `O=C(CSc1nc2ccccc2c(=O)n1C1CC1)NCc1ccccc1`, the IC50 in [1] is 4.79 µM (active). Turning to `CCn1c(C)c(C)c2cc(C(=O)Nc3cccc(Cl)c3)ccc21`, the CC50 in series [2] was 30.4 µM (active); in series [3], > 40 µM (active). The AC50 in [4] was 3.56 µM (active); in series [5] it was “inconclusive”. Turning to `CNc1oc(C)nc1S(=O)(=O)c1ccc(C)cc1`, the AC50 is 31.6 µM (inconclusive) in series [6] and “inconclusive” in series [5]. Take `Cc1ccccc1C(O)(Cc1ccccc1)C1CN2CCC1CC2` (configuration not stated): the EC50 in series [7] was 14.8 µM (active); in series [8] it was 14.5 µM (active); in series [9] it was 5.31 µM (active). Consider `CN1CCN(c2ncc3nc(-c4cn(C)c5ccccc45)c(=O)n(C[C@H]4CCCO4)c3n2)CC1`, for which the AC50 is 6.31 µM (inconclusive) in series [10] and “inconclusive” in series [5]. In the case of `Cn1c(CN2CCCCC2)nc2cc(NC(=O)c3ccccc3Cl)ccc21`, the IC50 in series [1] is 13.5 µM (active). As to `CS(=O)(=O)N1CCC(C(=O)c2cccc(Cl)c2)CC1`, in [11], the IC50 is 41.1 µM (active). For `Cc1cccc(C)c1OCC(O)CN` (configuration not stated), in series [9], the EC50 is 4.22 µM (active). Consider `Cn1c(=O)c2nc(-c3ccccc3)oc2c2ccccc21`, for which the figures for the AC50 in series [6], in [12] and in series [5] were 28.2 µM (inconclusive), 28.2 µM (inconclusive) and “inconclusive”, respectively. For `Cc1sc2nc(CSc3ccccc3)nc(NCCN(C)C)c2c1C`, in series [9], the EC50 was 2.99 µM (active).

On to `Cc1csc(NC(=O)CCN2C(=O)c3ccccc3S2(=O)=O)n1`, for which the IC50 in series [1] is 13.8 µM (active). With `O=C(CCCN1C(=O)c2cccc3cccc(c23)C1=O)N1CCc2ccccc2C1`, the figures for the AC50 in [12] and in [5] were 22.4 µM (inconclusive) and “inconclusive”, respectively. As for `CN(C)C(=O)c1ccc(-c2nc(NC3CCNCC3)c3ccccc3n2)cc1`, the results for the AC50 in series [10] and in series [5] were 20 µM (inconclusive) and “inconclusive”, respectively. In the case of `CN(CCc1ccccn1)C(=O)CC1C(=O)NCCN1Cc1cccc(F)c1` (configuration not stated), the EC50 in series [9] was 2.37 µM (active). `NC(=O)CCCn1c(C(=O)c2cc(Cl)c(N)c(Cl)c2)c2ccc([N+](=O)[O-])cc2[n+]1[O-]`: the results for the IC50 in series [13] and in [1] were > 20 µM (inactive) and 12.3 µM (active), respectively. Turning to `COc1ccccc1CCC(=O)Nc1cc(S(=O)(=O)N2CCCCC2)ccc1N1CCN(C)CC1`, the EC50 in series [9] was 0.944 µM (active). With `CCN1CCN(C(=O)c2ccc3nc(-c4ccccc4)c(-c4ccccc4)nc3c2)CC1`, the IC50 in [1] was 15.6 µM (active). `CC(C)C(=O)Nc1cccc(NC(=O)c2ccc(Cl)cc2Cl)c1`: the IC50 in series [1] was 7.24 µM (active).

On to `Cc1ccc(S(=O)(=O)Nc2ccc3c(c2)CC(=O)N([C@@H](C)CO)C[C@@H](C)[C@@H](CN(C)Cc2ccc(Oc4ccccc4)cc2)O3)cc1`, for which the concentration at half-maximal activity (AC50) in series [14] was 4.9 µM (active). In the case of `C[C@@H]1CN([C@@H](C)CO)C(=O)c2cccc(NC(=O)c3ccc(-c4nccs4)cc3)c2O[C@H]1CN(C)CC1CCCCC1`, the AC50 in [14] is 4.06 µM (active). In the case of `C[C@H]1CN([C@@H](C)CO)C(=O)Cc2cc(NC(=O)C3CC3)ccc2O[C@@H]1CN(C)Cc1ccc(C(F)(F)F)cc1`, the AC50 in series [14] was 3.25 µM (active). For the molecule `O=C(N/N=C/c1ccc(-c2cccc(Cl)c2)o1)c1ccccn1`, the AC50 in series [14] was 0.15 µM (active).

Regarding `Cc1noc(C)c1S(=O)(=O)Nc1ccc2c(c1)C(=O)N([C@H](C)CO)C[C@H](C)[C@@H](CN(C)Cc1ccc(C(=O)Nc3ccccc3N)cc1)O2`, in series [14], the AC50 is 1.4 µM (active).

For `C[C@@H]1CCCCO[C@H](CN(C)Cc2ccc(Cl)c(Cl)c2)[C@@H](C)CN([C@H](C)CO)C(=O)c2cc(NC(=O)Nc3cccc4ccccc34)ccc2O1`, the AC50 in series [14] is 3.72 µM (active). Take `Nc1ccn([C@@H]2CC[C@H](CO)O2)c(=O)n1`: the AC50 entry in [5] is reported as “inconclusive”.
